This is an account of results in publication PMC10987480, “Biological and mutational analyses of CXCR4–antagonist interactions and design of new antagonistic analogs” (Bioscience Reports, 2023).

Like-named read-outs stand apart in the source and are kept apart here. Positions of bridges follow the written chain, without caps; N, C: chain ends. Non-standard residues stand in square brackets, D forms with d. Residues, ends and D or L forms follow the SMILES beside them. 2Nal = N[C@@H](Cc1ccc2ccccc2c1)C(=O)O; d2Nal = N[C@H](Cc1ccc2ccccc2c1)C(=O)O; Cit = NC(=O)NCCC[C@H](N)C(=O)O

For assay [1], the target named is T1, CXCR4 (Homo sapiens, UniProt P61073). In words: SDF-1α-induced cell migration assay in SupT1 cells (transwell). It counts as cell-based. Further details: host or cells: SupT1 cells. Conditions: 2 nM SDF-1α, 30 min pre-incubation, 3 h migration; for inhibition at 40 µM: SUP-T1, at 40 μM. As for the experimental part:
(§1) Figure 2 The inhibitory effect of the antagonists on SDF-1α-induced cell chemotaxis and calcium mobilization in SupT1 cells The antagonists and concentrations used were labeled in each lane. (A) The inhibition of cell migration by the noted antagonists. SupT1 cells pre-treated with or without CXCR4 antagonists were seeded in the upper well and cell migrated by 2 nM SDF-1α. Migrated cells without SDF-1α were used as a negative (0%) and migrated cell induced by SDF-1α as a positive control (100%). […] SupT1 cells were treated with or without CXCR4 antagonists and activated by 50 nM SDF-1α. To directly compare the inhibitory effect of the antagonists on calcium mobilization, the vehicle background and baseline were removed using GraphPad and Origin. The data were averages of at least three independent experiments.
SupT1 cells (2 × 10^6 cells per well in 75 μl) were collected and washed using assay buffer (RPMI 1640 supplemented with 0.5% BSA) and incubated with various concentrations of tested compounds for 30 min in the upper well of the transwell-96 well plates with 5.0 µm pore polycarbonate membrane insert (Corning, U.S.A.). Then, 200 μl assay buffer containing 2 nM SDF-1α was added to the lower well and cells were allowed to migrate for 3 h. Migrated cells were measured using celltiter-96 reagent.

Assay [2] addresses T1, CXCR4. In words: SDF-1α-induced calcium mobilization assay in SupT1 cells (Fluo-4). It counts as cell-based. Further details: host or cells: SupT1 cells. The note with it: for inhibition at 10 µM: SUP-T1, at 10 μM, 50 nM SDF-1α, read-out: Inhibition of the calcium signal. As for the experimental part: as §1
SupT1 cells were collected and washed using HHBS buffer (Hanks’ Balanced Salt solution supplemented with 20 mM HEPES) and incubated with 1 mM probenecid (Energy Chemical, China) and 4 μM Fluo-4 (AAT bioquest, U.S.A.) for 37°C for 30 min with vortex every 5 min. After being washed with HHBS, cells were suspended in PBS at 2 × 10^6/ml and seeded 200 μl cells and various concentrations of compounds per well in 96-well plate. Following 50 nM SDF-1α was added to each well, the fluorescence intensity was measured (Ex/Em = 496/516 nm) using EnSpire® multimode plate reader (PerkinElmer, U.S.A.).

The target of assay [3] is T1, CXCR4. In words: Competitive CXCR4 binding assay (12G5 antibody probe), wild-type CXCR4 transfected CHO cells. Also noted: expressed in transfected cells. As to the method: The CXCR4-specific antibody, 12G5 was used as a probe for the competitive CXCR4 binding assay to evaluate the binding activity of CXCR4 antagonists.
Figure 1 Competitive CXCR4 binding curves of eleven CXCR4 antagonists The CXCR4 transfected CHO cells were incubated with different concentrations of antagonists and 250 ng/ml 12G5 antibody. The CXCR4-binding 12G5 antibody was recognized by FITC-conjugated anti-IgG second antibody. The cells treated with only second antibody were used as a negative control (0%) while cells treated with both 12G5 antibody and second antibody were used as a positive control (100%). Cells treated with CXCR4 antagonists were calculated in percentage relative to the positive and negative controls. The data were averages of at least three independent experiments and shown as mean ± standard error of the mean (S.E.M.).
(§2) The procedure for the CXCR4 competitive binding experiments was published previously. Briefly, CXCR4 antibody 12G5 (250 ng/ml) was incubated with 5 × 10^5 cells and varying concentrations of unlabeled compounds in a final volume of 100 μl of assay buffer (PBS with 0.5% BSA and 0.05% NaN3) in 96-well plates for 40 min on ice, after being washed with assay buffer once. The cells were incubated with FITC-conjugated second antibody IgG for 30 min on ice, then washed with assay buffer three times. The fluorescence intensity was measured for excitation at 485 nm and emission at 535 nm using multimode plate reader (PerkinElmer). The IC50 values were calculated using graphpad Prism 7. Experiments were performed at least three times.

In assay [4] the target is T1, CXCR4. Kind of assay: CXCR4-mediated internalization assay, CHO cells expressing CXCR4-EGFP (confocal). Type of assay: cell-based. Further details: expressed in transfected cells. Conditions: at 100 and 10 μM; SDF-1α-induced. As for the experimental part:
Figure 3 The inhibitory effect of the antagonists on CXCR4 internalization CHO cells expressed CXCR4-EGFP conjugates were seeded in 96-well plate with glass bottom. Untreated cells were used as a control. Cells were pre-treated with or without CXCR4 antagonists and internalized with 50 nM SDF-1α (scale bar: 5 μm). The concentrations of the antagonists used were the same as those for the calcium mobilization assay shown above. The data shown were representative of three independent experiments.
CXCR4 and EGFP were amplified using a primer shown in Supplementary Table S1. The pcDNA3 vector was digested by restriction-enzyme EcoR1 and Apa1. CXCR4 was digested by restriction-enzyme EcoR1 and Xba1. EGFP was digested by restriction-enzyme Xba1 and Apa1. CXCR4–EGFP conjugate was constructed by ligation of three DNA fragments using T4 ligase. The vector containing CXCR4 ligated EGFP at the C-terminus was transfected and expressed in CHO cells in 100 μl DMEM medium supplemented with 2% FBS at 1 × 10^5/ml which was seeded in 96-well black plate glass bottom and incubated at 37°C overnight. Following incubation with tested compounds for 10 min, 50 nM of SDF-1α was added to each well and the internalized CXCR4 was observed using a confocal microscopy (Zeiss LSM880).

In assay [5] the test system is CXCR4 mutants. In words: Mutational analysis of HM70116 binding to CXCR4 mutants compared with DV3. The note with it: mutants F87A, W94A, Y116A, T117A, D171A, W195A, Y255A, D262N, H281A; three independent experiments with duplicate values.
From the text: Figure 10 The mutational analysis and molecular modeling of HM70116 interaction with CXCR4 (A) Mutational analysis of HM70116 interaction with CXCR4 binding pocket. The data was averaged from three independent experiments with duplicate values. The data were shown as mean ± standard error of the mean (S.E.M.). (B) MD simulation of HM70116-CXCR4 complex. (C) Binding mode of the N-terminus of vMIP-II in the CXCR4-binding pocket.
as §2

The test system of assay [6] is CXCR4. Conditions: read-out: Competitive binding IC50; cited from earlier work. The source says: (§3) To understand the receptor–ligand recognition mechanism involving CXCR4 and its antagonists, here in this study we conducted a series of comparative analyses of the biological activities and CXCR4 binding sites of eleven known CXCR4 antagonists, including the three mentioned above, using cell-based bioassays, CXCR4 site-directed mutagenesis and computer-aided molecular modeling. These antagonists studied here were chosen from different representative structural types including both D-peptides (i.e., HC4319, DV1, DV1 dimer, and DV3) and a representative counterpart L-peptide (i.e., V1) derived ...

Assay [7] deals with X4-tropic HIV. Conditions: read-out: IC50, block of X4-tropic HIV infection via CXCR4; cited from earlier work.
From the text: as §3

Setting [8] is: CXCR4 transfected CHO cells, 250 ng/ml 12G5, 40 min on ice, FITC second antibody, mean ± S.E.M. of at least three independent experiments, SEM, read-out: IC50 (nM), inhibition of 12G5 binding to CXCR4.

T1 sequence (P61073 whole entry): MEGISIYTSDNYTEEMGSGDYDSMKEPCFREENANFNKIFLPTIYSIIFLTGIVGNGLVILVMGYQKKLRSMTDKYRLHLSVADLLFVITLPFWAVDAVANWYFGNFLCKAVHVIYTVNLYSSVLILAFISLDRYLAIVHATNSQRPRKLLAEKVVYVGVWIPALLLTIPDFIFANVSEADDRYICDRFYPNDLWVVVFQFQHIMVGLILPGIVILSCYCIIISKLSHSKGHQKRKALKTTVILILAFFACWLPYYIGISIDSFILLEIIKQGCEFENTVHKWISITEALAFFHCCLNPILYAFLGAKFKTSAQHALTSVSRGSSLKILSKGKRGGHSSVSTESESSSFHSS

As to `CC(C)C[C@@H](N)C(=O)NCC(=O)N[C@H](C)C(=O)N[C@H](CO)C(=O)N[C@H](Cc1c[nH]c2ccccc12)C(=O)N[C@H](Cc1c[nH]cn1)C(=O)N[C@H](CCCNC(=N)N)C(=O)N1CCC[C@@H]1C(=O)N[C@H](CC(=O)O)C(=O)N[C@H](CCCCN)C(=O)N[C@H](CS)C(=O)N[C@H](CS)C(=O)N[C@H](CC(C)C)C(=O)NCC(=O)N[C@H](Cc1ccc(O)cc1)C(=O)N[C@H](CCC(N)=O)C(=O)N[C@H](CCCCN)C(=O)N[C@H](CCCNC(=N)N)C(=O)N1CCC[C@@H]1C(=O)N[C@H](CC(C)C)C(=O)N1CCC[C@@H]1C(N)=O` [DV1] (H-[dL]G[dA][dS][dW][dH][dR][dP][dD][dK][dC][dC][dL]G[dY][dQ][dK][dR][dP][dL][dP]-NH2), the inhibition at 40 µM in assay [1] is 78%. Further, the inhibition at 10 µM in assay [2] came out at 86%.
In assay [3], `CC(C)C[C@@H](NC(=O)[C@@H](CCCNC(=N)N)NC(=O)[C@H](N)CCCCN)C(=O)NCC(=O)N[C@H](C)C(=O)N[C@H](CO)C(=O)N[C@H](Cc1c[nH]c2ccccc12)C(=O)N[C@H](Cc1c[nH]cn1)C(=O)N[C@H](CCCNC(=N)N)C(=O)N1CCC[C@@H]1C(=O)N[C@H](CC(=O)O)C(=O)N[C@H](CCCCN)C(=O)O` [HM60303] (H-[dK][dR][dL]G[dA][dS][dW][dH][dR][dP][dD][dK]-OH; N-terminus and C-terminus assumed) came in with an IC50 greater than 50000 nM.
Take `CC(C)C[C@@H](N)C(=O)NCC(=O)N[C@H](C)C(=O)N[C@H](CO)C(=O)N[C@H](Cc1c[nH]c2ccccc12)C(=O)N[C@H](Cc1c[nH]cn1)C(=O)N[C@H](CCCNC(=N)N)C(=O)N1CCC[C@@H]1C(=O)N[C@H](CC(=O)O)C(=O)N[C@H](CCCCN)C(=O)N[C@H](CCCNC(=N)N)C(=O)N[C@H](CCCNC(=N)N)C(=O)O` [HM12] (H-[dL]G[dA][dS][dW][dH][dR][dP][dD][dK][dR][dR]-OH): the half-inhibitory concentration (IC50) in assay [3] (SEM) is 544 ± 75 nM.
Regarding `CC(C)C[C@@H](N)C(=O)NCC(=O)N[C@H](C)C(=O)N[C@H](CO)C(=O)N[C@H](Cc1c[nH]c2ccccc12)C(=O)N[C@H](Cc1c[nH]cn1)C(=O)N[C@H](CCCNC(=N)N)C(=O)N1CCC[C@@H]1C(=O)N[C@H](Cc1ccc2ccccc2c1)C(=O)N[C@H](CCCNC(=N)N)C(=O)N[C@H](CCCNC(=N)N)C(=O)O` [HM70116] (H-[dL]G[dA][dS][dW][dH][dR][dP][d2Nal][dR][dR]-OH; N-terminus and C-terminus assumed), the “Inhibition of CXCR4 internalization (in words)” value in assay [4] is “effectively prevented CXCR4 internalization”. The “Inhibition of intracellular calcium mobilization (in words)” value in assay [2] (1 μM pretreatment, SDF-1α-induced) is listed as “potently inhibited”. In assay [5], the “Reduction in binding to CXCR4 mutants relative to DV3 (in words)” value is reported as “greater than DV3”.
Compound `CC(C)C[C@@H](N)C(=O)NCC(=O)N[C@H](C)C(=O)N[C@H](CO)C(=O)N[C@H](Cc1c[nH]c2ccccc12)C(=O)N[C@H](Cc1c[nH]cn1)C(=O)N[C@H](CCCNC(=N)N)C(=O)N1CCC[C@@H]1C(=O)N[C@H](CC(=O)O)C(=O)N[C@H](CCCCN)C(=O)N[C@H](CCCNC(=N)N)C(=O)O` [HM60323] (H-[dL]G[dA][dS][dW][dH][dR][dP][dD][dK][dR]-OH) came in with an IC50 in assay [3] (SEM) of 707 ± 143 nM.
`CC(C)C[C@H](NC(=O)[C@H](CS)NC(=O)[C@H](CS)NC(=O)[C@H](CCCCN)NC(=O)[C@H](CC(=O)O)NC(=O)[C@@H]1CCCN1C(=O)[C@H](CCCNC(=N)N)NC(=O)[C@H](Cc1c[nH]cn1)NC(=O)[C@H](Cc1c[nH]c2ccccc12)NC(=O)[C@H](CO)NC(=O)[C@H](C)NC(=O)CNC(=O)[C@@H](N)CC(C)C)C(=O)NCC(=O)N[C@@H](Cc1ccc(O)cc1)C(=O)N[C@@H](CCC(N)=O)C(=O)N[C@@H](CCCCN)C(=O)N[C@@H](CCCNC(=N)N)C(=O)N1CCC[C@H]1C(=O)N[C@@H](CC(C)C)C(=O)N1CCC[C@H]1C(=O)O` [V1] (H-LGASWHRPDKCCLGYQKRPLP-OH) displayed an inhibition at 40 µM in assay [1] of 68%. Besides, in assay [3] (setting [8]), the IC50 came out at 2630 ± 891 nM.
Consider `CC1(C)CN2C(CSC(=NC3CCCCC3)NC3CCCCC3)=CSC2=N1` [IT1t], for which the IC50 in assay [6] is […]; in assay [7] it was 7 nM.
As for `N=C(N)NCCC[C@H](NC(=O)[C@@H]1CSSC[C@H](NC(=O)[C@H](Cc2ccc3ccccc3c2)NC(=O)[C@H](CCCNC(=N)N)NC(=O)[C@@H](N)CCCNC(=N)N)C(=O)N[C@@H](Cc2ccc(O)cc2)C(=O)N[C@@H](CCC(N)=O)C(=O)N[C@@H](CCCCN)C(=O)N2CCC[C@@H]2C(=O)N2CCC[C@H]2C(=O)N[C@@H](Cc2ccc(O)cc2)C(=O)N[C@@H](CCCNC(=N)N)C(=O)N[C@@H](CCCNC(N)=O)C(=O)N1)C(=O)NCC(=O)N1CCC[C@@H]1C(=O)O` [CVX15] (H-RR[2Nal]CYQK[dP]PYR[Cit]CRG[dP]-OH; disulfide 4-13), in assay [1] (SUP-T1, at 20 nM), 0.02 µM produced 65% inhibition. Moreover, the IC50 in assay [3] (setting [8]) stood at 7.8 ± 2.2 nM.
Compound `CC(C)C[C@@H](N)C(=O)NCC(=O)N[C@H](C)C(=O)N[C@H](CO)C(=O)N[C@H](Cc1c[nH]c2ccccc12)C(=O)N[C@H](Cc1c[nH]cn1)C(=O)N[C@H](CCCNC(=N)N)C(=O)N1CCC[C@@H]1C(=O)N[C@H](CC(=O)O)C(=O)N[C@H](CCCCN)C(=O)O` [DV3] (H-[dL]G[dA][dS][dW][dH][dR][dP][dD][dK]-OH) came in with an inhibition at 40 µM in assay [1] of 13%. Also, in assay [2], the inhibition at 10 µM is roughly 55%.
